Assay results reported in paper PMC12156367, “Synthesis and Biological Evaluation of Seco-Coumarin/Furoxan Hybrids as Potent Anti-Tumor Agents to Overcome Multidrug Resistance via Multiple Mechanisms” (Molecules, 2025).

Experiments:
[1] = tested on: MCF-7/ADR; assay: Cell apoptosis analysis (Annexin V-FITC/PI flow cytometry); type: cell-based, human; details: 9e 10 nM, control 5.53%
Protocol: MCF-7/ADR (2 × 10^5 cells/well) were plated in 6-well plates and cultured overnight. Following 24 h treatment with specified concentrations of 9e, cells were harvested and analyzed by Annexin V-FITC apoptosis detection kit (Beyotime, Shanghai, China). Cell populations were subsequently analyzed by flow cytometry (Beckman, Brea, CA, USA).

[2] = tested on: MCF-7/ADR (doxorubicin-resistant human breast cancer cell line); assay: In vitro antiproliferative assay (MTT, 48 h), MCF-7/ADR; type: cell-based
Text: The MDA-MB-468 cell line was procured from the Cell Bank of the Chinese Academy of Sciences. The MCF-7, MCF-7/ADR, MCF-10A, and MDA-MB-231 cell lines were kindly provided by Professor Xianyi Sha (Fudan University, Shanghai, China). The HUVEC cells were kindly provided by Associate Professor Hulie Zeng (Fudan University, Shanghai, China). The MDA-MB-468, MDA-MB-231, MCF-7, MCF-10A, and HUVEC cells were cultivated in DMEM (Service Biotechnology, China) supplemented with 10% FBS (Capricorn Scientific, Germany) and 1% penicillin-streptomycin (Meilunbio, Dalian, China). For the MCF-7/ADR cells, they were cultured in RPMI-1640 (Service Biotechnology, Wuhan, China), containing 10% FBS and 1% penicillin-streptomycin. Additionally, 500 ng/mL of doxorubicin (Sigma-Aldrich, Saint Louis, MO, USA) was incorporated into the RPMI-1640 culture medium to keep drug resistance. All cell lines were cultured in a humidified incubator at 37 °C with a 5% CO2 atmosphere.
Following harvest during logarithmic growth, cells were plated in 96-well culture plates at an initial density of 5000 cells per well. Incubate the plate overnight at 37 °C to allow the cells to adhere. Following the overnight incubation, introduce the compound at the predetermined concentration into each well, and then return the plate to the incubator for an additional 48 h culture period. After the 48 h treatment, carefully aspirate the drug-containing medium from each well. Subsequently, add 150 μL of 0.5 mg/mL MTT (Beyotime, China) solution to each well. Protect the plate from light and incubate it at 37 °C for 4 h to allow the formation of formazan crystals. Finally, add 150 μL of DMSO (Sinopharm, China) to each well and gently mix to ensure complete dissolution of the formazan crystals. The OD value at 570nm was measured using a microplate reader (Thermo Fisher, Waltham, MA, USA). Cell proliferation inhibition was determined using the following formula:Inhibition (%) = [(ODDMSO − ODcompd.)/(ODDMSO − ODblank)] × 100
GraphPad Prism software 9 was used to calculate the IC50 values. The specific calculation process is as follows: Firstly, we input the experimental data into Prism. The data include the concentrations of the experimental compounds and the corresponding biological response values. For instance, in the cell experiment, we recorded the cell viability values at different drug concentrations. Subsequently, we select the option of “Dose–Response–Nonlinear Regression” in the “Analyze” menu for curve fitting. Generally speaking, we use the model of “[Inhibitor] vs. normalized response—Variable slope”. The Prism software fits the data through the nonlinear least squares method and finds the parameter values that can minimize the difference between the model’s predicted values and the actual data. After completing the curve fitting, the software will directly provide the estimated values and confidence intervals of the IC50 value and other relevant parameters. Meanwhile, it will also offer goodness-of-fit indices, such as the correlation coefficient, to evaluate the quality of the fitting. Through the above method, we can accurately calculate the IC50 value, thereby assessing the intensity of the inhibitory or activating effect of the compound on the biological system.

[3] = Solubility experiment (HPLC) in water/acetonitrile; type: physicochemical; details: in water/acetonitrile (table title)
Protocol: Wavelength: 254 nm; flow rate: 1.0 mL/min; column temperature: 25 °C. Mobile phase: Phase A: water, Phase B: acetonitrile (Table 5).
Compounds were dissolved in chromatographic-grade acetonitrile and diluted to concentrations of 200, 100, 50, 25, 12.5, and 6.25 µg/mL. A standard curve was plotted using the peak area under the curve (AUC) versus concentration. […] The supernatant was filtered through an ultrafiltration membrane and then subjected to HPLC analysis. The solubility of the target compound was determined by substituting the AUC of the test compound into the standard curve. Each measurement was performed in triplicate.

[4] = molecular target: T1, hERG potassium channels (Homo sapiens, UniProt Q12809); assay: Inhibition of hERG potassium channels (QPatch patch clamp, CHO-hERG cells); type: cell-based
T1 construct: expressed in transfected cells; host or cells: CHO-hERG cells (CHO cells expressing hERG)
T1 sequence (Q12809 whole entry): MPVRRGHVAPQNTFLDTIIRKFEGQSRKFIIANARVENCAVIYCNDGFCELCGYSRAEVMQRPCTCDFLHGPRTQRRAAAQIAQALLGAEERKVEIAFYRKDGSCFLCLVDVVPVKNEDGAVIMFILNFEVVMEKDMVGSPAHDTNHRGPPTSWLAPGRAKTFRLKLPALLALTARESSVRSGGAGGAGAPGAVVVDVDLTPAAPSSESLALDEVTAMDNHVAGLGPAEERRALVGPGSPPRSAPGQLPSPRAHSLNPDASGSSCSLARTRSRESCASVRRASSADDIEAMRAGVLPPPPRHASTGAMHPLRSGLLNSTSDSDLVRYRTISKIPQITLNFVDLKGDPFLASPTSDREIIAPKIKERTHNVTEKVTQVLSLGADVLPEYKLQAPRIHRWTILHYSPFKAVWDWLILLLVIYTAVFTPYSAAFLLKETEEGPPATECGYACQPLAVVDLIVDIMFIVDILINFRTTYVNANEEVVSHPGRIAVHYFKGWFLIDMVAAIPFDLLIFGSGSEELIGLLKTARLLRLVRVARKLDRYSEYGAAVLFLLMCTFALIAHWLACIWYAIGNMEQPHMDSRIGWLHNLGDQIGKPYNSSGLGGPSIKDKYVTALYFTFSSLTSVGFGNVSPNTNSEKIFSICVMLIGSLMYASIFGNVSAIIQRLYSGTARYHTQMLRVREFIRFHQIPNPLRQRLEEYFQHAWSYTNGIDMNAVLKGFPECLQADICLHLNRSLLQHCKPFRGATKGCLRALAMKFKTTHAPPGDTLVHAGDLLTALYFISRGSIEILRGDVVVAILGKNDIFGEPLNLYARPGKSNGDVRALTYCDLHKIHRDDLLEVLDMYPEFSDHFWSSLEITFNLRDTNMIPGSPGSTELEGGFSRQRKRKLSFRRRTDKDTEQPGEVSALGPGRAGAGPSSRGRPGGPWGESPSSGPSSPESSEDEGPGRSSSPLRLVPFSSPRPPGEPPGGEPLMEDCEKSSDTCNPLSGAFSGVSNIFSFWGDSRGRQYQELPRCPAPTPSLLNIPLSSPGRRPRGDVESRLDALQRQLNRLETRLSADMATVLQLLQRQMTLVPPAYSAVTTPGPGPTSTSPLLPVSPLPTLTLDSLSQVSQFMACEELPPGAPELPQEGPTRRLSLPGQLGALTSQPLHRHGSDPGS
Protocol: CHO-hERG cells (2 × 10^6 cells/dish) were seeded in confocal dishes. The compound stock solution was diluted with DMSO to six concentrations: 40.00, 13.33, 4.44, 1.48, 0.49, and 0.16 μM, which was prepared by using the Bravo platform. Both single-cell high-resistance sealing and whole-cell mode formation were automatically performed by the QPatch system (Shanghai Institute of Materia Medica, Shanghai, China). Each concentration was tested on at least two cells (n ≥ 2).

[5] = tested on: MCF-7/ADR; assay: Lysosomal and mitochondrial NO levels (Lyso-NO, Mito-NO probes), MCF-7/ADR; type: cell-based, human
Protocol: (§1) Lysosomal NO probes (Lyso-NO) and mitochondrial NO probes (Mito-NO), which are specifically used for detecting the nitric oxide levels in lysosomes and mitochondria, respectively, were provided by Professor Weili Zhao (Fudan University, China). Cells (MCF-7 or MCF-7/ADR) were plated in 6-well plates (2 × 10^5 cells/well). After overnight incubation, indicated concentrations of 9e were added to the cells for 4 h. Cells were first treated with 10 μM Lyso-NO or Mito-NO (15 min, 37 °C), then counterstained with Hoechst 33,342 nuclear dye (Beyotime, China; 10 min, 37 °C). Finally, the fluorescence intensity was measured under a fluorescence microscope (Olympus, Tokyo, Japan).

[6] = tested on: MCF-7; assay: Lysosomal and mitochondrial NO levels (Lyso-NO, Mito-NO probes), MCF-7; type: cell-based, human; details: 9e
Protocol: as §1

COc1ccc(CCC(=O)c2ccc(OCCOc3no[n+]([O-])c3S(=O)(=O)c3ccccc3)cc2OC)cc1 [Compound 9e, 4-(2-(3-methoxy-4-(3-(4-methoxyphenyl)propanoyl)phenoxy)ethoxy)-3-(phenylsulfonyl)-1,2,5-oxadiazole 2-oxide]
apoptosis (Q2+Q3) [1]: 37.1%
IC50 ([2]; Homo sapiens, NCI/ADR-RES, MTT, 48 h, mean of three determinations): 3.02 nM
Selectivity Ratio IC50(MCF-7)/ IC50(MCF-7/ADR) ([2]; collateral sensitivity): 1402.0
Solubility [3]: 56.4 ± 5.5%
IC50 [4]: > 40000 nM
Lyso-NO probe signal ([5]; 10 nM 9e, vs vehicle): significant rise
Mito-NO probe signal ([5]; 9e, vs control): no difference
Lyso-NO and Mito-NO probe fluorescence intensity [6]: no increase in fluorescence intensity
